Test results as given in paper PMC11676883, “Coumarins and Hesperetin Inhibit Human Respiratory Syncytial Virus Infection” (International Journal of Molecular Sciences, 2024).
Where “and” joins values, the source holds several entries; their conditions need not be identical. Equal values may be shown once. Entries after “also recorded” stand apart in the source; their conditions may differ. Read-outs that look alike come from different tables or passages of the source.

Key:
RSV-luc (rA2-Rluc) [1] = details: A549 cells; for inhibition of RSV-luc (result in words): not encapsulated, luciferase RLU; for Selectivity Index (SI): from CC50 and IC50
A549 cells [2] = test: MTT cytotoxicity assay on A549 cells; details: A549 cells
[3] = system: rgRSV (recombinant green fluorescent protein-expressing RSV, strain A2); test: Inhibition test on rgRSV-infected HEp-2 cells (GFP foci); details: 24-72 h, coumarin, esculin, umbelliferone 300 µM, esculetin 150 µM, 4-methyl 150 µM
RSV-luc (rA2-Rluc) [4] = test: Inhibition assay of β-cyclodextrin-encapsulated compounds on differentiated HBE cultures inoculated with RSV-luc; details: for inhibition compared with the PC (result in words) / mean difference vs positive control: encapsulated; for mean difference vs positive control / decrease in RSV infection: RSV-luc; for decrease in RSV infection: encapsulated with β-cyclodextrin, 48 h
A549 cells [5] = details: human, 48 h
[6] = MTT cytotoxicity assay on A549 cells; details: human
RSV-luc (rA2-Rluc) [7] = test: microbe, parasite or virus in culture; details: human respiratory syncytial virus, A549, read-out: IC50 (concentration inhibiting 50% viral replication)
influenza virus = system: influenza virus; parameters: method as in PMID 20092255; details: plaque reduction assay, cited from earlier work
[8] = MTT, 24 h, modified umbelliferones

Compound | viral inhibition at 24 h (RSV-luc (rA2-Rluc) [1]; RSV-luc) | viral inhibition at 48 h (RSV-luc (rA2-Rluc) [1]; RSV-luc) | inhibition of RSV-luc (result in words) (RSV-luc (rA2-Rluc) [1]) | concentration at which the cells were 80% viable (A549 cells [2]; MTT, 48 h) [µM] | inhibition of rgRSV (result in words) [3] | inhibition compared with the PC (result in words) (RSV-luc (rA2-Rluc) [4]) | concentration at which the cells were 80% viable (A549 cells [5]) [µM] | Selectivity Index (SI) (RSV-luc (rA2-Rluc) [1]) | CC50 [6] [µM] | IC50 (RSV-luc (rA2-Rluc) [7]) [µM] | further results
5,7-Dihydroxycoumarin-4-methylcoumarin [4-methyl esculetin] | about 40% | inhibition doubling | reduced luciferase gene expression | 75 | inhibited rgRSV effectively | no significant inhibition | – | – | – | – | IC50 (RSV-luc (rA2-Rluc) [1]; read-out: IC50 (concentration inhibiting 50% viral replication), RSV-luc): 70 µM; CC50 (A549 cells [2]; read-out: CC50 (concentration causing 50% cytotoxicity), MTT, extrapolated from CC90 and CC100): 1040 µM
O=c1ccc2ccccc2o1 [Coumarin, 1,2 Benzopyrone] | – | – | did not show inhibition; also recorded: no reduction in infection | – | did not | – | 300 | 2.16 | 3560 | 1650 | mean difference vs positive control (RSV-luc (rA2-Rluc) [4]): 19,333,333 RLU
O=c1ccc2cc(O)c(O)cc2o1 [Esculetin, 6,7-Dihydroxycoumarin] | approximately 50% | 70% | reduced luciferase gene expression | – | inhibited rgRSV effectively | – | 125 | 7.56 | 1410 | 180 | decrease in RSV infection (RSV-luc (rA2-Rluc) [4]): ~15%; mean difference vs positive control (RSV-luc (rA2-Rluc) [4]): 12,600,000 RLU
O=c1ccc2cc(O[C@@H]3O[C@H](CO)[C@@H](O)[C@H](O)[C@H]3O)c(O)cc2o1 [Esculin, 6,7-Dihydroxycoumarin-6-glucoside] | – | – | did not show inhibition | 300 | did not | no significant inhibition | – | 1.21 | 1930 | 1590 | –
COc1ccc(C2CC(=O)c3c(O)cc(O)cc3O2)cc1O (stereo not drawn) [Hesperetin, 3′,5,7-Trihydroxy-4′-methoxyflavanone] | 57% | not maintained | reduced luciferase gene expression | – | – | no significant inhibition | 300 | 7.39 | 2670 | 360 | decrease in RSV infection (RSV-luc (rA2-Rluc) [4]): ~7% and 7.5%
CN[C@@H]1C[C@H]2O[C@@](C)([C@@H]1OC)n1c3ccccc3c3c4c(c5c6ccccc6n2c5c31)C(=O)NC4 [Staurosporine, reference compound] | – | – | – | – | – | – | – | – | – | – | cells unavailable (A549 cells [2]; Staurosporine 1 mM, 48 h): 50%
O=c1ccc2ccc(O)cc2o1 [Umbelliferone, 7-Hydroxycoumarin] | – | – | did not show inhibition | 300 | did not | no significant inhibition | – | 0.46 | 2400 | 5140 | –
CC(=O)Oc1ccc2ccc(=O)oc2c1 [acetylated umbelliferone, 7-Acetoxycoumarin] | – | – | – | – | – | – | – | – | – | – | concentration that resulted in >80% viable cells (A549 cells [2]; [8]): 20 µM; cytotoxicity compared (result in words) (A549 cells [2]; [8]): higher cytotoxicity than prenylated umbelliferone
O=c1ccc2ccc3occc3c2o1 [angelicin] | – | – | – | – | – | – | – | – | – | – | reduction of influenza virus infection (influenza virus; 20 nM): 50%; reduction of influenza virus infection (result in words) (influenza virus; 100 nM): completely
OC[C@H]1O[C@@H]2O[C@H]3[C@H](O)[C@@H](O)[C@@H](O[C@H]4[C@H](O)[C@@H](O)[C@@H](O[C@H]5[C@H](O)[C@@H](O)[C@@H](O[C@H]6[C@H](O)[C@@H](O)[C@@H](O[C@H]7[C@H](O)[C@@H](O)[C@@H](O[C@H]8[C@H](O)[C@@H](O)[C@@H](O[C@H]1[C@H](O)[C@H]2O)O[C@@H]8CO)O[C@@H]7CO)O[C@@H]6CO)O[C@@H]5CO)O[C@@H]4CO)O[C@@H]3CO [β-cyclodextrin] | – | – | – | – | – | – | – | – | – | – | decrease of the available cells (A549 cells [5]): about 5%
